Test results reported in US20180112006A1, “AGENTS, SYSTEMS AND METHODS FOR TREATING CANCER” (THE GENERAL HOSPITAL CORPORATION, priority 2015, published 2018).

Columns and labels:
[1] = test system: NSC-TR-TK-GF1 cells; assay: Ganciclovir elimination of NSC-TR-TK-GF1 in vitro; type: cell-based, mouse; conditions: 10 mg/ml GCV
Protocol: (FIG. 11A) Representative phase and fluorescent images of NSC-TR-TK-GF1 in the presence or absence of 10 mg/ml GCV. Plot showing the Fluc activity of transduced cells in vitro. (FIG. 11B) Viability of MBr-FmC cells co-cultured with modified NSC at 1:1 ratio as measured by Fluc activity in vitro. The effects of NSC engineered with TK or TK-TR are shown. (FIG. 11C) Upper, outline of the experiment. Representative fluorescent images of metastatic MBr-RmC tumors in the mouse brain with or without NSC-TR-TK-GF1 administration to show post-tumor treatment (scale bar=100 μm).
To translate NSC-S-TRAIL therapy for brain metastasis into clinics, it is critical to follow the long-term fate of NSCs post-tumor treatment and ultimately, selectively eradicate therapeutic NSCs to avoid continuous access of therapeutic agent to normal brain tissue and to circumvent any malignant transformation of NSCs. To address this, NSC-S-TRAIL expressing cells were engineered to further express herpes simplex virus thymidine kinase (HSV-TK) and GFP-Fluc (GF1) (NSC-TR-TK-GF1) and tested for efficacy of thymidine kinase suicide therapy in vitro. […] Further, the efficacy of ganciclovir to eradicate NSCs in non-tumor bearing brain was tested. […] Next, the eradication of therapeutic NSCs post-tumor treatment in vivo was tested. NSC-TR-TK-GF1 expressing cells were intracranially injected into MBr-RmC tumor-bearing brains.

[2] = test system: NSC-TR-TK-GF1 cells; assay: Ganciclovir eradication of NSC-TR-TK-GF1 in mouse brains, Fluc bioluminescence imaging; type: in vivo, mice; conditions: for eradication of NSCs in non-tumor bearing brain: ganciclovir 75 mg/kg i.p. daily
Protocol: Two hundred thousand NSC-TR-TK-GF1 cells were either intracranially or intracarotidly injected in nude mice. Seven days after intracranial injection, or 3 days after intracarotid injection, daily PBS or ganciclovir (75 mg/kg body weight) were administrated via intraperitoneal (i.p.) injection for 2 weeks. NSC fate was assessed by bioluminescence imaging at various time points. To assess the eradication of therapeutic NSC post-tumor treatment, MBr-RmC cells (50 000 cells/mouse) were intracranially injected in nude mice and tumor-bearing mice were injected intratumorally with NSC-TR-TK-GF1 (50 000 cells/mouse) in the mouse brain. Daily PBS or ganciclovir were administrated via intraperitoneal injection after 4 days of NSC injection and the fate of NSCs was assessed by bioluminescence imaging at different time points.

[3] = test system: hNSC-TR-TK; assay: Ganciclovir eradication of modified human NSCs in vitro; type: cell-based; set-up: dose or concentration left out as unconfirmed
Protocol: (§1) (FIG. 6A) Plot showing the viability of MBr-FmC cells co-cultured with engineered human NSCs expressing TRAIL (TR), both TRAIL and HSV-TK (TR-TK) or GFP as measured by Fluc activity in vitro. (FIG. 6B) Plot showing the viability of modified human NSCs treated with ganciclovir (10 mg/ml). (FIG. 6C) Plot showing the viability of MBr-FmC cells co-cultured with engineered human MSC expressing TRAIL (TR), both TRAIL and HSV-TK (TR-TK) or GFP. (FIG. 6D) Plot showing the viability of modified human MSCs treated with ganciclovir (10 mg/ml).
(§2) To make the therapeutic strategy more clinically relevant, human NSCs and human MSCs were used and the efficacy of the TRAIL/thymidine kinase system on metastatic tumor cells was tested. Human NSCs and MSCs were engineered to express secreted TRAIL (hNSC-TR/hMSC-TR) or co-express secreted TRAIL and HSV-TK (hNSC-TR-TK/hMSC-TR-TK), and established co-cultures of MBr-FmC with different proportions of modified human NSCs and MSCs.

[4] = test system: hMSC-TR-TK; assay: Ganciclovir eradication of modified human MSCs in vitro; type: cell-based; set-up: dose or concentration left out as unconfirmed
Protocol: as §1, §2

[5] = test system: metastatic MBr cells; assay: TRAIL killing of tumor cells versus normal cells; type: cell-based

Nc1nc(O)c2ncn(COC(CO)CO)c2n1 [ganciclovir]
elimination of modified NSC in vitro (Fluc, GFP) [1]: eliminated
eradication of therapeutic NSCs post-tumor treatment ([2]; MBr-RmC tumor-bearing brains, vs PBS): eradication of therapeutic NSC-TR-TK-GF1
eradication of NSCs in non-tumor bearing brain ([2]; NSCs implanted via intracranial route): substantially eradicated
eradication of NSCs in non-tumor bearing brain ([2]; NSCs via intracarotid route): substantially eradicated
eradication of hNSC-TR-TK in vitro [3]: successfully eradicated
eradication of hMSC-TR-TK in vitro [4]: successfully eradicated

TRAIL
killing of tumor cells versus normal cells [5]: specifically killed the tumor cells instead of the normal cells
